Measurements published in patent US11590110B2, “Compositions and methods for reactivating latent immunodeficiency virus using a GSK-3 inhibitor” (priority 2017, dated 2023).

Assays:
[1] = tested on: patient-derived CD4+ T cells; test: Example 3: expression of activation markers CD69 and CD25 in patient-derived CD4+ T cells; type: cell-based, human; conditions: 48 hours; anti-CD3/CD28 beads = 100%
Method: Following treatment with Tideglusib, the CD4^+ T cells were spun down and stained with antibodies for the activation markers CD69 and CD25. Briefly, cells were harvested 48 hours after Tideglusib treatment, incubated with the antibodies for 15 minutes at room temperature, than washed and fixed with 1% PFA for 30 minutes; then washed again and analyzed via flow cytometer.

[2] = tested on: latent HIV-1 in blood CD4+ T cells from infected individuals on suppressive ART; type: cell-based
CD4+ T cells [3] = test: Example 5: CD4+ T cell viability, Cell Titer Blue assay; type: cell-based, human; conditions: 48 hours; SB-216763 and tideglusib 10/100/1000 nM; bryostatin-1 10 nM
Method: 25 μl from each well/treatment were incubated with Cell Titer Blue reagent (Promega) for 3 to 4 hours at 37° C. The assay is based on the ability of living cells to convert a redox dye (resazurin) into a fluorescent end product (resorufin). Colorimetric analysis of treated cells was done with a Perkin Elmer EnSpire 2300 Multimode plate reader set to detect fluorescence (Ex:579 nm/Em:584 nm).

CD4+ T cells [4] = test: Example 5: surface expression of activation markers CD69 and CD25, flow cytometry; type: cell-based, human; conditions: 48 hours
Method: (§1) Freshly isolated PBMCs or CD4^+ T cells were stained for viability, using the fixable viability dye Zombie violet (1:50, Biolegend) according to the manufacturer's recommendation. Surface staining was performed with the following antibodies at 1:100 dilutions: CD3-PE-Cy7, CD4-APC-Cy7, CD69-FITC, CD25-PE (all 1:100, Biolegend), and Glut-1-Ax647 (BD Bioscience, 566580) in staining buffer for 20 min on ice and cells were fixed in 1% PFA-containing PBS. All flow analysis was performed on the LSRII (BD Biosciences) using FlowJo software (v.10.4.2). Color compensations were performed using single-stained samples for each of the fluorochromes used. Data were analyzed using FlowJo software (TreeStar, San Carlos, Calif.).

CD4+ T cells [5] = test: Example 5: cytokines release assay (V-PLEX pro-inflammatory panel); type: cell-based, human; conditions: 48 hours; culture supernatant of CD4+ T cells
Method: Supernatant was collected from the treated cell cultures described above and stored at −80° C. for later analysis. Supernatant cytokine levels were determined using a V-PLEX Proinflammatory Panel 1 (human) Kit (#K15049D-1) and a V-PLEX IL-17A Gen. B (human) (#K151WMD) from Meso Scale Discovery, following the manufacturer's protocol. The assay was done on undiluted supernatant samples in order to increase the sensitivity of the assay.

[6] = tested on: AKT/mTOR pathway in CD4+ T cells; test: Example 5: RNA and protein expression profiling with nanoString; type: cell-based, human; conditions: 1 μM
Method: Quantitative RNA and protein expression data were generated using the nCounter Vantage 3D Solid Tumor Assay and the nCounter SPRINT profiler (NanoString Technologies), comprising 770 RNA and 30 protein targets including positive and negative controls. 1-3 million negatively selected primary CD4^+ T cells purified from HIV-positive donors on suppressive ART, as described above, were treated with 1 μM tideglusib or left untreated (DMSO control). […]. For RNA samples, an additional RNA purification step (Qiagen miRNeasy Mini Kit) was necessary to ensure an appropriate sample input for the nCounter assay. A total of at least 30 ng RNA was used for each sample. Otherwise, samples were processed according to the manufacturer's instructions. RNA and protein expression values were normalized and analyzed using the nSolver Analysis Software 4.0 and the add-on Advanced Analysis Software 2.0.115 (NanoString Technologies). Normalization genes for each sample were automatically selected by the software based on the geNorm algorithm (ref vandesompele). Biological replicates were then grouped according to treatment and the differential expression of each analyte-type (RNA or protein target) was determined in comparison to the untreated condition by considering inter-donor differences as confounding variables. Based on the differential expression of each gene, pre-defined gene sets by nanoString, representing different pathways included in this assay, were analyzed by calculating global significance scores for each gene set within each treatment, as follows: […]

CD4+ T cells [7] = test: Example 5: GLUT1 surface expression, flow cytometry; type: cell-based, human; conditions: 2 or 24 hours; 1 μM tideglusib; CD4+ T cells of three HIV-negative donors
Method: as §1
Changes to the metabolism of resting CD4^+ T-cells by tideglusib were studied. […] […].

CD4+ T cells [8] = test: Example 5: lactate production analysis; type: cell-based, human; conditions: 24 hours of treatment
Method: Subsequently, media of the treated samples were tested for production of L-lactated using a Glycolysis Cell-Based Assay Kit (Cayman Chemical). This test measures the quantity of formazan, an artificial chromogenic dye that results from the reduction of tetrazolium salts in the presence of NADH in the culture media. Colored formazan absorbs between 490 and 520 nm and can be detected by a plate reader. Since lactate dehydrogenase catalyzes the reaction between NAD+ and lactate, yielding pyruvate and NADH, which directly reduces the tetrazolium salt, the quantity of formazan produced is proportional to the quantity of L-lactate in the culture medium, and is thus an indirect measurement of glycolysis. In order to determine specific L-Lactate concentration, a standard curve was obtained analyzing absorbance of known concentration of L-lactate as indicated in the manufacturer's protocol.

CD8+ T cells = test: Example 5: CD8 T-cell viability and cytotoxic effector functions; type: cell-based, human
Method: After drug treatment, human PBMCs were cultured in complete RPMI in the presence of CD107a-BV650 (1:50, 328637, BioLegend) or CD107a-FITC antibodies (1:50, 555800, BD Bioscience) and PMA/ionomycin (50 ng/ml and 1 uM) dor 3.5 hours, adding Brefeldin A and Monensin (eBioscience) for the last hour. Cells were subsequently stained for viability using the viability dyes eFluor 506, (eBioscience) according to the provided protocol. After surface marker staining with the following antibodies (all at 1:100 dilution): CD3-APC-H7 (560176; BD Biosciences), CD8-V450 (560347; BD Biosciences), CD45RA-APC (17-0458; eBioscience), and CCR7-PE-Cy7 (557648; BD Biosciences), cells were permeabilized and fixed using the Foxp3/Transcription Factor Fixation/Permeabilization Concentrate and Diluent kit (eBioscience). Intracellular staining was performed with IFN-γ-PerCP-Cy5.5 antibody (1:100, 560704, BD Bioscience) in FOXP3 perm/wash buffer for 1 h at 4° C. After washing and fixation of the cells in 1% paraformaldehyde/PBS, cells were analyzed by flow cytometry. Final data stems from having gated on CD8hi- and CD8lo-expressing T cells.

[9] = tested on: primary CD4+ T cells isolated from fresh human tonsils; test: CD69 transcripts in primary CD4+ T cells from fresh human tonsils; type: cell-based; conditions: 2-day treatment
[10] = pre-treatment 1 μM 48 hours, then PMA/ionomycin

O=c1sn(-c2cccc3ccccc23)c(=O)n1Cc1ccccc1 [Tideglusib, 4-benzyl-2-(naphthalen-1-yl)-1,2,4-thiadiazolidine-3,5-dione]
activation markers CD69 and CD25 on the surface of CD4+ T cells [1]: not up-regulated
release of virus-associated HIV-1 mRNA relative to bryostatin-1, by median values ([2]; 1 μM tideglusib vs 10 nM bryostatin-1): twofold more
virus-associated HIV-1 mRNA, median value ([2]; 1 μM, 48 hours, relative to untreated control): 10.3 fold
CD4+ T-cell viability (CD4+ T cells [3]): does not reduce viability
surface expression of the activation markers CD69 or CD25 (CD4+ T cells [4]): no increase
production and release of pro-inflammatory cytokines (CD4+ T cells [5]): does not induce T cell activation or cytokine production
activation of the AKT/mTOR pathway (phosphorylation of GSK-3β, AKT and TSC2) ([6]; 15 minutes post-treatment): non-significant activation
activating phosphorylation of p70S6K on T389 ([6]; 1 hour): significant phosphorylation values
inhibiting phosphorylation of GSK-3β on S9 ([6]; 1 hour): significant phosphorylation values
inhibiting phosphorylation of TSC2 on T1426 ([6]; 6 hours): statistically-relevant phosphorylation
phosphorylation of AKT on S473 ([6]; 6 hours): statistically-relevant phosphorylation
overall transcriptome changes, pathways (700 transcripts) ([6]; after 1 and 6 hours): activation of the mitogen-activated protein kinase (MAPK), PI3K, Ras, Wnt and TGFβ pathways and deactivation of the Hedgehog, Notch and Janus kinases (JAK) and signal transducer and activator of transcription proteins (STAT)-pathways
GLUT1 surface expression over the untreated control (CD4+ T cells [7]): did not increase GLUT1 surface expression
L-lactate in the culture media (CD4+ T cells [8]): did not result in an increase of L-lactate
viability of CD8+ T cells (CD8+ T cells; 48 hours): did not reduce viability
IFN-γ production in CD8+ T cells (CD8+ T cells; [10]): increase in IFN-γ production
surface expression of CD107a in CD8+ T cells (CD8+ T cells; [10]): increased surface expression of CD107a
expression of CD69 transcripts [9]: reduces expression of CD69 transcripts
